This experiment deals with Acetyl-CoA carboxylase 1 (Homo sapiens, UniProt Q13085). The experiment in a line: Inhibition of the Activity of ACC1. As to the method:
The direct inhibition of ACC1 for the compounds of the present invention was determined using preparations of recombinant human ACC1 (rhACC1) (SEQ ID NO. 1). Preparation of rhACC1: Two liters of SF9 cells, infected with recombinant baculovirus containing full length human ACC1 cDNA, were suspended in ice-cold lysis buffer (25 mM Tris, pH 7.5; 150 mM NaCl; 10% glycerol; 5 mM imidazole (EMD Bioscience; Gibbstown, NJ); 2 mM TCEP (BioVectra; Charlottetown, Canada); Benzonase nuclease (10000 U/100 g cell paste; Novagen; Madison, WI); EDTA-free protease inhibitor cocktail (1 tab/50 ml; Roche Diagnostics; Mannheim, Germany). Cells were lysed by 3 cycles of freeze-thaw and centrifuged at 40,000×g for 40 minutes (4° C.). Supernatant was directly loaded onto a HisTrap FF crude column (GE Healthcare; Piscataway, NJ) and eluted with an imidazole gradient up to 0.5 M over 20 column volumes (CV). ACC1-containing fractions were pooled and diluted 1:5 with 25 mM Tris, pH 7.5, 2 mM TCEP, 10% glycerol and direct loaded onto a CaptoQ (GE Healthcare) column and eluted with an NaCl gradient up to 1 M over 20 CV's. Phosphate groups were removed from purified ACC1 by incubation with lambda phosphatase (100 U/10 μM target protein; New England Biolabs; Beverly, MA) for 14 hours at 4° C.; okadaic acid was added (1 μM final concentration; Roche Diagnostics) to inhibit the phosphatase. […]

Usually IC50 stands for the point on the concentration scale where inhibition reaches its midpoint. In turn, `Cn1ncc2c(Cl)cc(C(=O)N3CCC4(CC3)CC(=O)c3nc(C(C)(C)C)sc3C4)cc21` [US20240109915, Example 73] gave an IC50 of 22.9 nM.

Consider `Cc1nn(C)c2c(Cl)cc(C(=O)N3CCC4(CC3)CC(=O)c3nc(C(C)(C)C)sc3C4)cc12` [US20240109915, Example 84], for which the IC50 was found to be 92.6 nM.

The record behind these values is BindingDB's records for patent US20240109915 (Pfizer, 2024).
